Experimental data: paper PMC9000887, “Novel 1,2,3-Triazole-Coumarin Hybrid Glycosides and Their Tetrazolyl Analogues: Design, Anticancer Evaluation and Molecular Docking Targeting EGFR, VEGFR-2 and CDK-2” (Molecules, 2022)

How the values were obtained:
[1] = system: human prostate (PC-3) cancer cell line; test: MTT cytotoxicity assay, PC-3; details: Homo sapiens; for IC50: read-out: IC50 (Mean ± SEM) PC-3; for inhibition at 100 µM: read-out: % Inhibition PC-3
Protocol: (§1) After 48 h incubation, the medium was aspirated and then 40 μL MTT salt (2.5 mg/mL) was added for a further 4 h. […] Doxorubicin was used as the positive control and 0.5% DMSO was used as the negative control.

[2] = system: human melanoma (A-375) cancer cell line; test: MTT cytotoxicity assay, A-375; details: Homo sapiens; for IC50: A-375, read-out: IC50 (Mean ± SEM) A-375; for inhibition at 100 µM: A-375, read-out: % Inhibition A-375
Protocol: as §1

[3] = system: human pancreatic (Paca-2) cancer cell line; test: MTT cytotoxicity assay, Paca-2; details: Homo sapiens; for IC50: PaCa-2, read-out: IC50 (Mean ± SEM) Paca-2; for inhibition at 100 µM: PaCa-2, read-out: % Inhibition Paca-2
Protocol: as §1

[4] = system: human colon (Caco-2) cancer cell line; test: MTT cytotoxicity assay, Caco-2; details: for IC50: read-out: IC50 (Mean ± SEM) Caco-2, Caco-2, MTT, three independent determinations; for % Inhibition Caco-2: Caco-2, at 100 µM, MTT, (-) No activity detected
Protocol: as §1

[5] = system: human melanoma (Mel-501) cancer cell line; test: MTT cytotoxicity assay, Mel-501; details: Homo sapiens; for IC50: read-out: IC50 (Mean ± SEM) Mel-501; for inhibition at 100 µM: read-out: % Inhibition Mel-501
Protocol: as §1

SMILES	melting point	IC50 [1]	IC50 [2]	IC50 [3]	IC50 [4]	IC50 [5]	inhibition at 100 µM [1]	inhibition at 100 µM [2]	inhibition at 100 µM [3]	% Inhibition Caco-2 [4]	inhibition at 100 µM [5]
COc1cccc2c1C(=O)c1c(O)c3c(c(O)c1C2=O)C[C@@](O)(C(=O)CO)C[C@@H]3O[C@H]1C[C@H](N)[C@H](O)[C@H](C)O1 [Doxorubicin, reference compound]		6.8 ± 0.2 µM	4.5 ± 0.07 µM	19.4 ± 0.5 µM	3.7 ± 0.2 µM	3.5 ± 0.3 µM					
O=c1cc(-c2ccccc2)c2ccc(OCc3nn[nH]n3)cc2o1 [Compound 3, 7-((2H-Tetrazol-5-yl)methoxy)-4-phenyl-2H-chromen-2-one]	219 to 221 °C						12.2%	55.3%	55.6%		48.4%
CC(=O)OC[C@H]1O[C@@H](n2nnc(COc3ccc4c(-c5ccccc5)cc(=O)oc4c3)n2)[C@H](OC(C)=O)[C@@H](OC(C)=O)[C@H]1OC(C)=O [Compound 5, 4-Phenyl-7-((1-(2,3,4,6-tetra-O-actyl-β-D-galactopyranosyl)-2H-tetrazol-5-yl)methoxy)-2H-chromen-2-one]	122 to 124 °C					72.1 ± 1.2 µM	15%	23.1%	56.9%		68.4%
N#CCOc1ccc2c(-c3ccccc3)cc(=O)oc2c1 [Compound 2, 2-((2-Oxo-4-phenyl-2H-chromen-7-yl)oxy)acetonitrile]	183 to 184 °C						10.5%	6.5%	44.1%		35.6%
O=c1cc(-c2ccccc2)c2ccc(OCc3nnn(CCOCCO)n3)cc2o1 [Compound 9, 7-((2-(2-(2-Hydroxyethoxy)ethyl)-2H-tetrazol-5-yl)methoxy)-4-phenyl-2H-chromen-2-one]		47.4 ± 1.4 µM	15 ± 0.04 µM	28.3 ± 0.7 µM	38.1 ± 0.4 µM	30.2 ± 0.5 µM	95.9%	84.1%	94.7%	99.5%	97.7%
O=c1cc(-c2ccccc2)c2ccc(O)cc2o1 [Compound 1, 7-hydroxy-4-phenyl-2H-chromen-2-one]			12.9 ± 0.6 µM	62.3 ± 1.3 µM		28.6 ± 0.4 µM	55.7%	95%	79%	40.5%	96.2%

More lines, main results first:

melting point	SMILES	IC50 [1]	IC50 [2]	IC50 [3]	IC50 [4]	IC50 [5]	inhibition at 100 µM [1]	inhibition at 100 µM [2]	inhibition at 100 µM [3]	% Inhibition Caco-2 [4]	inhibition at 100 µM [5]
93 to 94 °C	CC(=O)OC[C@H]1O[C@@H](n2cc(COc3ccc4c(-c5ccccc5)cc(=O)oc4c3)nn2)[C@H](OC(C)=O)[C@@H](OC(C)=O)[C@H]1OC(C)=O [Compound 14, 4-Phenyl-7-((1-(2,3,4,6-tetra-O-acetyl-β-D-galactopyranosyl)-1H-1,2,3-triazol-4-yl)methoxy)-2H-chromen-2-one]	51.3 ± 1.6 µM	12.4 ± 0.3 µM	33.4 ± 0.6 µM	70.2 ± 1.4 µM	65.1 ± 1.2 µM	80.2%	96.8%	94.9%	89.8%	77.1%
195 to 196 °C	O=c1cc(-c2ccccc2)c2ccc(OCc3nnn([C@@H]4OC[C@@H](O)[C@H](O)[C@H]4O)n3)cc2o1 [Compound 8]	48.2 ± 0.7 µM	13.9 ± 0.2 µM	23.8 ± 0.9 µM	52.5 ± 1.3 µM	19.4 ± 0.4 µM	98.1%	95%	96.5%	97%	98.1%
204 to 205 °C	O=c1cc(-c2ccccc2)c2ccc(OCc3nnn([C@@H]4O[C@H](CO)[C@H](O)[C@H](O)[C@H]4O)n3)cc2o1 [Compound 7]						0%	13.8%	21.3%		22.3%
